According to paper PMC9150179, “Clerodane Diterpenes from Casearia corymbosa as Allosteric GABAA Receptor Modulators” (Journal of Natural Products, 2022):

Columns and labels:
[1] = biological target: GABAA receptor with the α1β2γ2 subunit composition (Homo sapiens, UniProt P14867+P18507+P47870); experiment: FLIPR assay on CHO cells stably expressing GABAA receptors; type: cell-based; settings: for % activation at single concentration: 20 μM compound, 200 μM GABA = 100%
Procedure: Chinese hamster ovary (CHO) cells stably expressing the GABAA receptor with the α1β2γ2 subunit composition were passaged following an established protocol.[15],[16] The Chinese hamster ovary (CHO) cell line stably expressing the α1β2γ2 GABAA receptor subtype was cloned by B’SYS. Cells were cultured in a DMEM F-12 nutrient mixture supplemented with 10% FBS and 1% penicillin/streptomycin, under antibiotic pressure with 200 μg/mL of hygromycin B, 5 μg/mL of puromycin, and 100 μg/mL of zeocin. Cells were incubated in humidified air at 37 °C and 5% CO2, until 80–90% cell confluency. The passage numbers used in this study were from 10 to 30. Briefly, cells of ca. 80–90% confluency were seeded in a 96-well black-walled plate at a density of 60 000 cells/well in 100 μL of culture medium. The plate was incubated in humidified air at 37 °C and 5% CO2 for 24 h to allow cells to adhere. Then, 100 μL of FLIPR red dye solution (10.4 mL of assay buffer and one vial of red FLIPR assay reagent) was added to each well. The plate was further incubated for 30 min to allow the dye to penetrate into the cell membrane (assay plate). During the incubation time, a compound plate (clear 96-well plate) with controls, extracts, microfractions, compounds, and blanks was prepared (200 μL/well). Test solutions of extracts, microfractions, and compounds were prepared in buffer (consisting of 10% HBSS and 2% HEPES in sterilized H2O) and DMSO.
For the extract library screening, 2 μL of a 10 mg/mL DMSO stock solution of the extracts was added to 198 μL of buffer and transferred into the compound plate. The final test concentration for extracts was 20 μg/mL, with a final DMSO concentration in the assay of 0.1%. For extracts tested, active (>35% potentiation) serial dilutions were prepared from the stock solution to obtain final test concentrations of 0.16, 0.31, 0.63, 1.25, 2.50, 5.00, 10.00, and 20.00 μg/mL.
To test the pure compounds, stock solutions of 20 mM in DMSO were prepared. Compounds were assayed at a final concentration range of 0.16 to 20.00 μM (8× dilution series) or alternatively from 0.01 to 20.00 μM (12× dilution series). Aliquots of 200 μL from each dilution were transferred into wells of the compound plate and tested.
A series of controls was included in each assay. GABA at 200 μM was used to represent 100% activation of the receptor, while GABA at 2 μM represented the minimum activation (EC10). The positive control was diazepam at 20 μM in the presence of GABA at 2 μM, and buffer with 0.1% DMSO was used as a blank. GABA solutions (2 and 200 μM) were prepared from a 100 mM stock solution. In order to achieve a final test concentration of 20 μM diazepam in the assay plate, a 100 μM working solution was prepared from a stock solution (1 mg/mL in MeOH).
All test solutions were placed in the appropriate position in the compound plate (200 μL). Right after the final incubation period of the assay plate, the compound and assay plates were placed into a FlexStation 3 (Molecular Devices). The FlexStation parameters used in this study were as previously published.[14] Fluorescence was recorded for 500 s. For the first 25 s, the background fluorescence of the assay plate was measured (background signal). At 25 s, 50 μL of the test solutions (dilutions from compounds, extracts, microfractions, diazepam, and blanks) was transferred from the compound plate into the assay plate. The fluorescence was then recorded until 295 s. At 295 s, 25 μL of the GABA solutions (final concentration of 2 or 200 μM) was transferred into each well of the assay plate, and fluorescence was recorded until 500 s. The change in fluorescence intensity measured between 270 and 330 s was used for the calculation of percentage activation.

[2] = system: GABAA receptors; set-up: method as in PMID 17585957; settings: Xenopus oocyte assay; cited from earlier work
[3] = biological target: T1, GABAA receptors α1β2 (Homo sapiens, UniProt P14867+P47870); experiment: Two-microelectrode voltage clamp assay with Xenopus laevis oocytes (α1β2); type: cell-based; settings: α1β2, in the presence of GABA EC3–7, n = 3
T1 construct: expressed in transfected cells; host or cells: Xenopus laevis oocytes, cRNA injection
T1 sequence (P14867 28-456): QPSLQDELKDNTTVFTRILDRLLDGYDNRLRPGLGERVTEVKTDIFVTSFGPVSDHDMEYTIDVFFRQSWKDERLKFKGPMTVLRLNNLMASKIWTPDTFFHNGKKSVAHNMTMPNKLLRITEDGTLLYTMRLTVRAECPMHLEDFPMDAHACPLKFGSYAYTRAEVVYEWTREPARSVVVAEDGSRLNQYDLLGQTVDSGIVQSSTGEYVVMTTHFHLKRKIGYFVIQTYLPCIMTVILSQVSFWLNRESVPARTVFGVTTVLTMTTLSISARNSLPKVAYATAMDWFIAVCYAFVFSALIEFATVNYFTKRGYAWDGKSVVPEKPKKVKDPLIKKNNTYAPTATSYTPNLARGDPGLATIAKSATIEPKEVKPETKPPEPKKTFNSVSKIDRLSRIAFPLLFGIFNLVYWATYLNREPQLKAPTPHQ
T1 sequence (P47870 25-512 limits assumed): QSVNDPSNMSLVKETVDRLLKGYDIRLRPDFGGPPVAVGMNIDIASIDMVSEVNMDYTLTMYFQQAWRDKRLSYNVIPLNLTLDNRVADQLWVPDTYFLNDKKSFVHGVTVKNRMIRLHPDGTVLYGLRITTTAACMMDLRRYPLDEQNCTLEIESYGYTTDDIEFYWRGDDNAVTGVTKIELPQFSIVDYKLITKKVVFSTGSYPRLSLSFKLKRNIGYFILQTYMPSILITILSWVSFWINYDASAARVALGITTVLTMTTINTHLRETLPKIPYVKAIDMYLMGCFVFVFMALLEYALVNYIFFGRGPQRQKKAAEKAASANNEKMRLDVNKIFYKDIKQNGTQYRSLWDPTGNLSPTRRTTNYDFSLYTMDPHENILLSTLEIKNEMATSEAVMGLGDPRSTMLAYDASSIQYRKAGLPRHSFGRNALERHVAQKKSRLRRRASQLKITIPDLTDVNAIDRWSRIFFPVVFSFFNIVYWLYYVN
Procedure: Recombinant GABAA receptors (α1β2γ2s and α1β2) were expressed in X. laevis oocytes by cRNA injection, as previously described.[37] Two-microelectrode voltage clamp measurements were performed between days 1 and 5 after injection of cRNA of the respective subunits, using a TURBO TEC 03X amplifier (npi Electronic) at a holding potential of −70 mV and pCLAMP 10 data acquisition software (Molecular Devices). The bath solution contained 90 mM NaCl, 1 mM KCl, 1 mM MgCl2, 1 mM CaCl2, and 5 mM HEPES (pH 7.4), and the electrode filling solution contained 2 M KCl. Test solutions (100 μL) were applied to the oocytes at a speed of 300 μL/sec by means of the ScreeningTool (npi electronic) automated fast perfusion system. GABA EC3–7 was determined through a concentration–response experiment with GABA. A stock solution of compound 8 (100 mM) in DMSO was diluted with a bath solution containing GABA EC3–7 to obtain appropriate working solutions according to a validated protocol. Enhancement of the IGABA was defined as (I(GABA+Comp)/IGABA) – 1, where I(GABA+Comp) is the current response in the presence of a given compound, and IGABA is the control of the GABA-induced chloride current. Emax reflects the maximal IGABA enhancement. […]

[4] = biological target: T2, GABAA receptors α1β2γ2S (Homo sapiens, UniProt P14867+P18507+P47870); experiment: Two-microelectrode voltage clamp assay with Xenopus laevis oocytes (α1β2γ2S); type: cell-based
T2 construct: expressed in transfected cells; host or cells: Xenopus laevis oocytes, cRNA injection
Procedure: Recombinant GABAA receptors (α1β2γ2s and α1β2) were expressed in X. laevis oocytes by cRNA injection, as previously described.[37] Two-microelectrode voltage clamp measurements were performed between days 1 and 5 after injection of cRNA of the respective subunits, using a TURBO TEC 03X amplifier (npi Electronic) at a holding potential of −70 mV and pCLAMP 10 data acquisition software (Molecular Devices). The bath solution contained 90 mM NaCl, 1 mM KCl, 1 mM MgCl2, 1 mM CaCl2, and 5 mM HEPES (pH 7.4), and the electrode filling solution contained 2 M KCl. Test solutions (100 μL) were applied to the oocytes at a speed of 300 μL/sec by means of the ScreeningTool (npi electronic) automated fast perfusion system. GABA EC3–7 was determined through a concentration–response experiment with GABA. A stock solution of compound 8 (100 mM) in DMSO was diluted with a bath solution containing GABA EC3–7 to obtain appropriate working solutions according to a validated protocol. Enhancement of the IGABA was defined as (I(GABA+Comp)/IGABA) – 1, where I(GABA+Comp) is the current response in the presence of a given compound, and IGABA is the control of the GABA-induced chloride current. Emax reflects the maximal IGABA enhancement. Concentration–response curves were generated, and the data were fitted by nonlinear regression analysis using Origin Software (OriginLab Corporation, USA) and are given as the means ± SEM of at least three oocytes from ≥2 batches. Diazepam (Sigma) and flumazenil (Sigma-Aldrich) were used as positive controls at 2 μM.

T2 sequence (P18507 40-467 isoform P18507-1 limits assumed, one chain of several): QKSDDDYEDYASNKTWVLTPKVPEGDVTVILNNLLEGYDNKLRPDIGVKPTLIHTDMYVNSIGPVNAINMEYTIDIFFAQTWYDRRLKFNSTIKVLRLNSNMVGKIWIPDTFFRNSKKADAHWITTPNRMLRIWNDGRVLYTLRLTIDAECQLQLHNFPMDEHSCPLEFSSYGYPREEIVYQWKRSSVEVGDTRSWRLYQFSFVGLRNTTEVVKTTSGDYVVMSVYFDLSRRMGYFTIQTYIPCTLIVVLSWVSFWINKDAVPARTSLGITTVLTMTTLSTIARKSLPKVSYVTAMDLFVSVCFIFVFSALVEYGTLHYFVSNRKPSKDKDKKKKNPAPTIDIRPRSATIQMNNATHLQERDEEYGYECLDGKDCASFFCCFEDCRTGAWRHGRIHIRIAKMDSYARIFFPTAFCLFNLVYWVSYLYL
Chain of GABAA receptor with the α1β2γ2 subunit composition (P18507 40-475, one chain of several): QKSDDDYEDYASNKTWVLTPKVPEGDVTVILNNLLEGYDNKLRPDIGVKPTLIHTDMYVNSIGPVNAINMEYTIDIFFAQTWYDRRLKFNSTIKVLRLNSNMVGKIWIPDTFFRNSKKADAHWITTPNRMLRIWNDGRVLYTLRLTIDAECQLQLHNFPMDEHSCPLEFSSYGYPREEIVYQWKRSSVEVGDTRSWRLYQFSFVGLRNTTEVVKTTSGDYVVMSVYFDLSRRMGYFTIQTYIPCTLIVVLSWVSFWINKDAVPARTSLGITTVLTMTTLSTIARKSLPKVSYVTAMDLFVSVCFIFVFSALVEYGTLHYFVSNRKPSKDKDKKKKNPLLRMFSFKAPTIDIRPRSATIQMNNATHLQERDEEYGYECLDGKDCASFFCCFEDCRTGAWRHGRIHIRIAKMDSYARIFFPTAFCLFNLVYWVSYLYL

C=C/C(C)=C/C[C@]1(C)[C@H](C)C[C@H](O)[C@]23C(=C[C@H](OC(=O)C(=C)C)C[C@@H]12)[C@@H](OC)O[C@H]3OC(C)=O [Compound 6, (2R)-2-Methylpropenoyloxy-6S-hydroxy-18S-methoxy-19S-acetoxyzuelanin]
% activation at single concentration ([1]; in the presence of 2 μM GABA): no discernible activity

CN1C(=O)CN=C(c2ccccc2)c2cc(Cl)ccc21 [diazepam]
maximal potentiation (Emax) [2]: ~200%

C=C/C(C)=C/CC1(C)C(C)CC(OC(C)=O)C23C(=CC(OC(C)=O)CC12)C(OC(C)=O)OC3OC(C)=O [Compound 7, (2S,6S,18S,19S)-Tetraacetoxyzuelanin]
% activation at single concentration ([1]; in the presence of 2 μM GABA): significantly enhanced | EC50 ([1]; in the presence of 2 μM GABA, CHO cells α1β2γ2, read-out: EC50, positive allosteric modulation of the GABA signal): 4.6 µM

C=C/C(C)=C/C[C@]1(C)[C@H](C)C[C@H](O)[C@]23C(=C[C@@H](OC(C)=O)C[C@@H]12)[C@@H](OC(C)=O)O[C@H]3OC(C)=O [Compound 3, Corymbotin D]
% activation at single concentration ([1]; in the presence of 2 μM GABA): significantly enhanced

CCOC(=O)c1ncn2c1CN(C)C(=O)c1cc(F)ccc1-2 [flumazenil, reference compound]
effect on potentiation of the GABA signal by diazepam ([1]; diazepam 2 μM, flumazenil 0.001–100 μM, concentration-dependent): abolished

C=C/C(C)=C/C[C@]1(C)[C@H](C)C[C@H](O)[C@]23C(=C[C@H](OC(=O)C(=C)C)C[C@@H]12)[C@@H](OC(C)=O)O[C@H]3OC(C)=O [Compound 4, Corymbotin F]
% activation at single concentration ([1]; in the presence of 2 μM GABA): no discernible activity

C=C/C(C)=C/C[C@]1(C)[C@H](C)C[C@H](OC)[C@@]2(C=O)C(C=O)=C[C@@H](OC(C)=O)C[C@@H]12 [Compound 5, (5S,8R,9R,10S)-2S-Acetoxy-6S-methoxyclerod-3,12,14-trien-18,19-dial]
% activation at single concentration ([1]; in the presence of 2 μM GABA): ~40%

pregnenolone sulfate [PREGS, reference compound]
effect of PREGS on GABA signal with 8, highest concentration ([1]; 8 (10 μM) with PREGS 10 μM, 2 μM GABA): decrease of the GABA signal | effect of PREGS on GABA signal with 8, lower concentrations ([1]; 8 (10 μM) with PREGS at lower concentrations (<10 μM), 2 μM GABA): no effect | effect on activation by allopregnanolone ([1]; allopregnanolone 0.5 μM, PREGS 0.001–100 μM): abrogated

CCO [ethanol, reference compound]
activation of the GABA signal ([1]; concentrations up to 640 mM, in presence of 2 μM GABA): no activation

C=C/C(C)=C/C[C@]1(C)[C@H](C)C[C@H](OC)[C@]23C(=C[C@H](OC(=O)CC)C[C@@H]12)[C@@H](OC(C)=O)O[C@H]3OC(C)=O [Compound 9, (2R)-Propanoyloxy-(6R)-methoxy-18R,19S-diacetoxyzuelanin]
% activation at single concentration ([1]; in the presence of 2 μM GABA): no discernible activity

C=C/C(C)=C/C[C@]1(C)[C@H](C)C[C@H](O)[C@@]2(C=O)C(C=O)=C[C@@H](OC(C)=O)C[C@@H]12 [Compound 1, (5S,8R,9R,10S)-2S-Acetoxy-6S-hydroxyclerod-3,12,14-trien-18,19-dial]
% activation at single concentration ([1]; in the presence of 2 μM GABA): ~40%

C=C/C(C)=C/C[C@]1(C)[C@H](C)C[C@H](OC)[C@]23C(=C[C@@H](OC(C)=O)C[C@@H]12)[C@@H](OC(C)=O)O[C@H]3OC(C)=O [Compound 8, Corimbotin A]
EC50 ([3]; read-out: EC50, potentiation of GABA-induced chloride currents (IGABA)): 57.6 µM | Emax ([3]; read-out: Emax, maximal IGABA enhancement): 534% | % activation at single concentration ([1]; in the presence of 2 μM GABA): significantly enhanced | activation by 8 in the presence of flumazenil ([1]; 8 (5 μM) with flumazenil 0.001–10 μM, 2 μM GABA): not abrogated | combination with allopregnanolone ([1]; 8 (0.5–4.0 μM) with allopregnanolone (0.25 μM), 2 μM GABA): additive effects | combination with diazepam ([1]; 8 (0.5–8 μM) with diazepam (2 μM), 2 μM GABA): additive effect | potentiation of the GABA signal by etazolate in combination with 8 ([1]; etazolate (2 μM) with 8 (0.5–8 μM), 2 μM GABA): further increased | IGABA stimulation by 8 in the presence of flumazenil ([4]; 8 (50 μM), flumazenil (2 μM)): not prevented | EC50 ([4]; α1β2γ2S, in the presence of GABA EC3–7, n = 3, read-out: EC50, potentiation of GABA-induced chloride currents (IGABA)): 43.6 µM | Emax ([4]; α1β2γ2S, in the presence of GABA EC3–7, n = 3, read-out: Emax, maximal IGABA enhancement): 809%

C=C/C(C)=C/C[C@]1(C)[C@H](C)C[C@H](O)[C@]23C(=C[C@@H](OC(C)=O)C[C@@H]12)[C@@H](OC)O[C@H]3OC(C)=O [Compound 2, Graveospene H]
% activation at single concentration ([1]; in the presence of 2 μM GABA): no discernible activity
